In the experiment the target is T1, GPR103 L14N-termA (Homo sapiens, UniProt Q96P65, L14A).
T1 construct: we used human full-length QRFPR-encoding plasmids; expressed in transfected cells; host or cells: HEK293 cells, pCAGGS vector
T1 sequence (Q96P65 1-431 L14A): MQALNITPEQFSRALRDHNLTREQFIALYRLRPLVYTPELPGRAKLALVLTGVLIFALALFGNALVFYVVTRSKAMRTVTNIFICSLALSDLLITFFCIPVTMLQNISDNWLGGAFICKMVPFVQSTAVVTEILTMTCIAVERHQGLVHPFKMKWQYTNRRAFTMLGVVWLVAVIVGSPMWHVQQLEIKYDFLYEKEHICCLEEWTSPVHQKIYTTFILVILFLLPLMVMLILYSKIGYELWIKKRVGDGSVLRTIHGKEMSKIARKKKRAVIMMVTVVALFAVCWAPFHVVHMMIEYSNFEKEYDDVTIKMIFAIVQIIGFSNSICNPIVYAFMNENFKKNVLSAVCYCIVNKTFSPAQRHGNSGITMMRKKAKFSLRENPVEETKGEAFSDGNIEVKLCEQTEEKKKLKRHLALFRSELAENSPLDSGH
Briefly: TGFα shedding assay; Exp. level WT (1:5). Type of experiment: cell-based. How it is done: For the TGFα shedding assay and the flow cytometry analysis, we used human full-length QRFPR-encoding plasmids. Specifically, GPR103 was N-terminally modified with an HA signal sequence followed by a FLAG epitope and then a flexible linker ([…]; the FLAG epitope is underlined) and inserted into the pCAGGS vector. Plasmid encoding GPR103 mutants were generated using Quickchange Site-Directed Mutagensis kit (Agilent).
The TGFα shedding assay was performed as described previously with minor modifications. Plasmid transfection was performed in a 6-well plate with a mixture of 500 ng (per well in a 6-well plate) AP-TGFα-encoding plasmid and 200 ng GPR103-encoding plasmid. After 1-day culture, the transfected cells were harvested by trypsinization, pelleted by centrifugation at 190 × g for 5 min, and washed once with 5 mM HEPES (pH 7.4)-containing Hank’s Balanced Salt Solution (HBSS). After centrifugation, the cells were resuspended in 8 mL of the HEPES-containing HBSS. The cell suspension was seeded in a 96-well culture plate (cell plate) at a volume of 90 μL (per well hereafter) and incubated in a 37 °C incubator with 5% CO2 for 30 min. […] After spinning the cell plates at 190 × g for 2 min, 80 μL of conditioned media was transferred to an empty 96-well plate (conditioned media (CM) plate). Then, 80 μL of AP reaction solution (10 mM p-nitrophenylphosphate (p-NPP), 120 mM Tris-HCl (pH 9.5), 40 mM NaCl, and 10 mM MgCl2) was dispensed into the cell plates and the CM plates. Absorbance at 405 nm of the plates was measured using a microplate reader (SpectraMax 340 PC384, Molecular Devices) before and after 1-h incubation at room temperature. Ligand-induced AP-TGFα release was calculated by subtracting spontaneous AP-TGFα release signal from ligand-induced AP-TGFα release signal. The AP-TGFα release signals were fitted to a four-parameter sigmoidal concentration–response curve, using the Prism 10 software (GraphPad Prism). For each replicate experiment, the pEC50 parameter (negative logarithmic values of EC50 values) of the individual GPR103 mutants were normalized to that of the wild-type GPR103 performed in parallel, and resulting ∆pEC50 values were used to denote ligand response activity of the mutants. […]
Exp. le vel: WT (1:5 0)Exp. le vel: WT (1:5 0)Exp. le vel: WT (1:5 0)Exp. le vel: WT (1:2 0)Exp. le vel: WT (1:2 0)Exp. le vel: WT (1:1 0) […]
L1 4N - t e r mA F2 5N - t e r mA I 2 6N - t e r mA Y 2 9N - t e r mA C 9 82 .5 7A T10 22 .6 1A Exp . l eve l: WT (1 :5)Exp . l evel : >WT (1 :1)Exp. le vel: WT (1:2 0)Exp. le vel: WT (1:2 0)Exp. le vel: WT (1:5 0)Exp . l eve l: WT (1 :1) […]
Exp. le vel: WT (1:1 0)Exp. le vel: WT (1:2 0) C 1 1 83 .2 5AExp. le vel: WT (1:5 0)Exp. le vel: WT (1:5 0)Exp. le vel: WT (1:2 0)Exp . l eve l: WT (1 :5) […]
Exp. le vel: WT (1:5 0)Exp. le vel: WT (1:1 0)Exp. le vel: WT (1:5 0) E203ECL2AExp . l evel : >WT (1 :1)Exp. le vel: WT (1:5 0)Exp. le vel: WT (1:5 0) […]
Exp . l eve l: WT (1 :1) F28Exp. le vel: WT (1:5 0) C 2 8 56 .4 7AExp. le vel: WT (1:2 0) WExp. le vel: WT (1:2 0) F28Exp. le vel: WT (1:5 0)Exp . l evel : >WT (1 :1) […]
Exp. le vel: WT (1:5 0)Exp. le vel: WT (1:5 0) C 3 2 77 .4 8AExp . l eve l: WT (1 :5)Exp . l evel : >WT (1 :1)Exp . l evel : >WT (1 :1) […]
Suppl eme nt ary Figure 1 | Mutational analysis of GPR103. […]
mutants. Data are presented as mean values ± SEM, normally n=3-5; dots), each performed in triplicate. b-d Cell-surface expression (b) and QRFP26-in-duced activation of GPR103 (c, d) were analyzed by the flow cytometry and the TGFα shedding assay, respectively. From the concentration–response curves (a), Emax (c) and ΔpEC50 (d) values relative to the wild type were calculated. Colors in the mutant bars indicate an expression level matching to that of titrated wild type. Statistical analyses were performed using the ordinary one-way ANOVA followed by Dunnett tests with the expression-matched […]

Read-outs that look alike come from different tables or passages of the source. No end group written: not given here.

The term EC50 denotes the concentration giving half of the maximal effect. A high value points to a less potent agent. Turning to TSGPLGNLAEELNGYSRKKGGFSFRF-NH2 [QRFP26], the Emax (Exp. #1) is reported as 105.09 % WT; the Emax (Exp. #2) worked out at 97.15 % WT; the Emax (Exp. #3) is 104.38 % WT; the Emax (mean, read-out: Emax) came out at 102%; the Emax (n = 3, read-out: Emax) came out at 106 ± 2.1%. Under “n = 3”, the midpoint of the response, the EC50, lay at 7.59 nM.
